The text below walks through data of US10669296B2, “LXR agonists and uses thereof” (Rgenix, Inc., priority 2014, dated 2020).

For one test, the system named is Cancer cells (MeWo). The test can be described thus: Matrigel invasion assay. The test is classed as cell-based. Conditions: 1 μM drug, invasion 24 h. The procedure: Cancer cells (MeWo) were pre-treated in presence of 1 μM drug or control (DMSO) for 72 h after which cancer cells were switched to serum-starvation in 0.2% FBS DMEM-based media for 16 h in the presence of the drug or control, respectively. Trans-well invasion chambers (354480, BD Biosciences, Bedford, Mass.) were pre-equilibrated in DMEM-based media prior to the beginning of the assay by adding 0.5 ml of starvation media to the top and bottom chambers. After 30 min, the media in the top chamber was removed, and 0.5 ml of media containing 1×10^5 cancer cells in the presence of the drug, was added into each matrigel-coated trans-well insert. Cells were allowed to invade through the matrigel-coated inserts for 24 h at 37° C.

The subject of a further test is ApoE. The test can be described thus: ApoE gene expression analysis by qRT-PCR in MeWo cancer cells. The test is classed as cell-based. Conditions: 48 h; for Emax at 10 µM / Emax at 1 µM: read-out: ApoE gene expression in relation to GW3965 at 1 μM (100%). The procedure:
Cancer cells (MeWo) were treated in presence of drug or control (DMSO) at indicated concentrations for 48 h. RNA was extracted from whole cell lysates using the Total RNA Purification Kit (17200, Norgen, Thorold, Canada). 600 ng of total RNA was then reverse transcribed into cDNA using the Verso cDNA Synthesis Kit (AB-1453/B, Fisher Scientific). 6 ng of the resulting cDNA was then mixed with SYBR green PCR Master Mix (4309155, Applied Biosystems) and the appropriate primers. Each reaction was performed in quadruplicate, and mRNA expression was quantified by performing real-time PCR amplification using a StepOne Plus Real-Time PCR System (Applied Biosystems). GAPDH was used as an endogenous control for normalization. EC50 values were calculated using Prism6 software and plotting expression values versus drug concentration. The following primers were used: [table] The results are shown in relation to GW3965 ApoE expression at 1 μM (i.e. 100%).
A general note: Real-time PCR tracks product formation cycle by cycle.

Each structure is given as a SMILES string. Where only a bound is given, the exact number is not on record here.

By EC50 is commonly meant the concentration at which the effect is half-maximal. Low readings indicate an effect from little substance, high ones a need for much substance. For `CS(=O)(=O)N1CCCC(OCCCN(Cc2cccc(C(F)(F)F)c2Cl)CC(c2ccccc2)c2ccccc2)C1` (stereo not drawn) [Compound 29, {[2-chloro-3-(trifluoromethyl)phenyl]methyl}(2,2-diphenylethyl){3-[(1-methanesulfonylpiperidin-3-yl)oxy]propyl}amine], the “% of Cells Migrated Compared to Control” value in the test on Cancer cells (MeWo) was under 50%. Besides, in the test with ApoE (1 μM), the “ApoE gene expression in relation to GW3965 at 1 μM (100%)” value is reported as “++ (“++” > 40% induction)”. In the test on ApoE, this compound displayed a concentration giving a half-maximal response (EC50) of under 300 nM. The Emax at 10 µM with ApoE (Homo sapiens, MeWo, 10 μM) is over 80%.
For the compound `C[C@H](CCOc1cc(F)c(CO)c(S(C)(=O)=O)c1)N(Cc1cccc(C(F)(F)F)c1Cl)CC(c1ccccc1)c1ccccc1` [Compound 9, {4-[(3R)-3-({[2-chloro-3-(trifluoromethyl)phenyl]methyl}(2,2-diphenylethyl)amino)butoxy]-2-fluoro-6-methanesulfonylphenyl}methanol], the “% of Cells Migrated Compared to Control” value in the test on Cancer cells (MeWo) is under 50%. For the same compound, the EC50 in the test on ApoE (Homo sapiens, MeWo) was under 300 nM. Also, in the test on ApoE (Homo sapiens, MeWo, 1 μM), the Emax at 1 µM is over 40%. Besides, in the test with ApoE (Homo sapiens, MeWo, 10 μM), the Emax at 10 µM was over 80%.
In the case of `CC(CCOc1cccc(CC(=O)O)c1)N(Cc1cccc(C(F)(F)F)c1Cl)CC(c1ccccc1)c1ccccc1` (stereo not drawn) [SB742881, reference compound], in the test on Cancer cells (MeWo), the “% of Cells Migrated Compared to Control” value is recorded as under 70%. For the same compound, the EC50 in the test with ApoE (Homo sapiens, MeWo) is under 1000 nM. Also, the Emax at 1 µM in the test on ApoE (Homo sapiens, MeWo, 1 μM) is over 40%. The Emax at 10 µM with ApoE (Homo sapiens, MeWo, 10 μM) is over 40%.
Take `CS(=O)(=O)c1cc(OCCCN(Cc2cccc(OC(F)(F)F)c2)CC(c2ccccc2)c2ccccc2)cc(F)c1CO` [Compound 74, (4-{3-[(2,2-diphenylethyl)({[3-(trifluoromethoxy)phenyl]methyl})amino]propoxy}-2-fluoro-6-methanesulfonylphenyl)methanol]: in the test on ApoE (Homo sapiens, MeWo, 1 μM), the Emax at 1 µM is over 40%. Further, in the test on ApoE (Homo sapiens, MeWo, 10 μM), the Emax at 10 µM was over 40%.
`CS(=O)(=O)c1cc(OCCCN(Cc2cccc(C(F)(F)F)c2Cl)CC(c2ccccc2)c2ccccc2)cc(F)c1C(N)=O` [Compound 90, 4-[3-({[2-chloro-3-(trifluoromethyl)phenyl]methyl}(2,2-diphenylethyl)amino)-propoxy]-2-fluoro-6-methanesulfonylbenzamide]: the EC50 with ApoE (Homo sapiens, MeWo) was under 1000 nM. Moreover, the Emax at 1 µM with ApoE (Homo sapiens, MeWo, 1 μM) was over 80%.
With `CS(=O)(=O)N1CC[C@H](OCCCN(Cc2cccc(C(F)(F)F)c2Cl)CC(c2ccccc2)c2ccccc2)C1` [Compound 61, {[2-chloro-3-(trifluoromethyl)phenyl]methyl}(2,2-diphenylethyl)(3-{[(3S)-1-methanesulfonylpyrrolidin-3-yl]oxy}propyl)amine], the Emax at 1 µM in the test with ApoE (Homo sapiens, MeWo, 1 μM) is over 40%. In the test on ApoE (Homo sapiens, MeWo, 10 μM), the Emax at 10 µM was over 80%.
Regarding `CS(=O)(=O)c1cc(OCCCN(Cc2cccc(C(F)(F)F)c2Cl)CC(c2ccccc2)c2ccccc2)cc(F)c1C=O` [Compound 65, 4-[3-({[2-chloro-3-(trifluoromethyl)phenyl]methyl}(2,2-diphenylethyl)amino)propoxy]-2-fluoro-6-methanesulfonyl-benzaldehyde], the 50% effective concentration (EC50) in the test with ApoE (Homo sapiens, MeWo) was under 1000 nM. In addition, the Emax at 1 µM in the test with ApoE (Homo sapiens, MeWo, 1 μM) is over 80%. Further, in the test with ApoE (Homo sapiens, MeWo, 10 μM), the Emax at 10 µM was over 80%.
As for `C[C@@H](CN(CCCOc1cc(F)c(CO)c(S(C)(=O)=O)c1)Cc1cccc(C(F)(F)F)c1Cl)c1ccccc1` [Compound 79, {4-[3-({[2-chloro-3-(trifluoromethyl)phenyl]methyl}[(2R)-2-phenylpropyl]amino)propoxy]-2-fluoro-6-methanesulfonylphenyl}methanol], in the test with ApoE (Homo sapiens, MeWo), the concentration giving a half-maximal response (EC50) was under 1000 nM. Also, the Emax at 1 µM in the test with ApoE (Homo sapiens, MeWo, 1 μM) is over 80%. Besides, in the test on ApoE (Homo sapiens, MeWo, 10 μM), the Emax at 10 µM is over 80%.
In the case of `CC(=O)NCc1c(F)cc(OCCCN(Cc2cccc(C(F)(F)F)c2Cl)CC(c2ccccc2)c2ccccc2)cc1S(C)(=O)=O` [Compound 89, N-({4-[3-({[2-chloro-3-(trifluoromethyl)phenyl]methyl}(2,2-diphenylethyl)amino)propoxy]-2-fluoro-6-methanesulfonylphenyl}methyl)acetamide], the EC50 in the test on ApoE (Homo sapiens, MeWo) is under 1000 nM. The Emax at 1 µM in the test with ApoE (Homo sapiens, MeWo, 1 μM) was over 80%. Moreover, in the test with ApoE (Homo sapiens, MeWo, 10 μM), the Emax at 10 µM was over 80%.
In the test with ApoE (Homo sapiens, MeWo), `CS(=O)(=O)c1cccc(OCCCN(Cc2cccc(C(F)(F)F)c2Cl)CC(c2ccccc2)c2ccccc2)c1` [Compound 7, {[2-chloro-3-(trifluoromethyl)phenyl]methyl}(2,2-diphenylethyl)[3-(3-methanesulfonylphenoxy)propyl]amine] yielded an EC50 of under 1000 nM. Moreover, in the test with ApoE (Homo sapiens, MeWo, 1 μM), the Emax at 1 µM is over 80%. The Emax at 10 µM in the test with ApoE (Homo sapiens, MeWo, 10 μM) is over 40%.
In the case of `CS(=O)(=O)c1cc(OCCCN(Cc2cccc(C(F)(F)F)c2Cl)CC(c2ccccc2)C2CCCCC2)cc(F)c1CO` (stereo not drawn) [Compound 78, {4-[3-({[2-chloro-3-(trifluoromethyl)phenyl]methyl}(2-cyclohexyl-2-phenylethyl)amino)propoxy]-2-fluoro-6-methanesulfonylphenyl}methanol], in the test on ApoE (Homo sapiens, MeWo, 1 μM), the Emax at 1 µM was over 40%.
Regarding `O=C1Cc2cc(OCCCN(Cc3cccc(C(F)(F)F)c3Cl)CC(c3ccccc3)c3ccccc3)ccc2CO1` [Compound 6, 6-[3-({[2-chloro-3-(trifluoromethyl)phenyl]methyl}(2,2-diphenylethyl)amino)propoxy]-3,4-dihydro-1H-2-benzopyran-3-one], the half-maximal effective concentration (EC50) in the test with ApoE (Homo sapiens, MeWo) was under 300 nM. For the same compound, the Emax at 1 µM in the test with ApoE (Homo sapiens, MeWo, 1 μM) is over 80%. In addition, the Emax at 10 µM in the test on ApoE (Homo sapiens, MeWo, 10 μM) is over 40%.
`CS(=O)(=O)N1CCC[C@H](OCCCN(Cc2cccc(C(F)(F)F)c2Cl)CC(c2ccccc2)c2ccccc2)C1` [Compound 66, {[2-chloro-3-(trifluoromethyl)phenyl]methyl}(2,2-diphenylethyl)(3-{[(3S)-1-methanesulfonylpiperidin-3-yl]oxy}propyl)amine]: the “ApoE gene expression in relation to GW3965 at 1 μM (100%)” value in the test with ApoE (1 μM) and with ApoE (10 μM) was “+++ (“+++” > 80% ApoE induction)” each time. The compound further gave an EC50 in the test with ApoE of under 3000 nM.
Regarding `CS(=O)(=O)c1cc(OCCCN(Cc2ccc(F)c(C(F)(F)F)c2)CC(c2ccccc2)c2ccccc2)cc(F)c1CO` [Compound 75, (4-{3-[(2,2-diphenylethyl)({[4-fluoro-3-(trifluoromethyl)phenyl]methyl})amino]propoxy}-2-fluoro-6-methanesulfonylphenyl)methanol], the Emax at 1 µM in the test with ApoE (Homo sapiens, MeWo, 1 μM) is over 40%. Also, the Emax at 10 µM in the test with ApoE (Homo sapiens, MeWo, 10 μM) was over 80%.
With `CC(C)(CN(CCCOc1cc(F)c(CO)c(S(C)(=O)=O)c1)Cc1cccc(C(F)(F)F)c1Cl)c1ccccc1` [Compound 82, {4-[3-({[2-chloro-3-(trifluoromethyl)phenyl]methyl}(2-methyl-2-phenylpropyl)amino)propoxy]-2-fluoro-6-methanesulfonylphenyl}methanol], the Emax at 1 µM in the test with ApoE (Homo sapiens, MeWo, 1 μM) was over 40%.
Take `C[C@@H](CCOc1cc(F)c(CO)c(S(C)(=O)=O)c1)N(Cc1cccc(C(F)(F)F)c1Cl)CC(c1ccccc1)c1ccccc1` [Compound 71, {4-[(3S)-3-({[2-chloro-3-(trifluoromethyl)phenyl]methyl}(2,2-diphenylethyl)amino)butoxy]-2-fluoro-6-methanesulfonylphenyl}methanol]: the Emax at 1 µM in the test with ApoE (Homo sapiens, MeWo, 1 μM) is under 40%.
In the test on ApoE (Homo sapiens, MeWo), `COC(=O)c1c(F)cc(OCCCN(Cc2cccc(C(F)(F)F)c2Cl)CC(c2ccccc2)c2ccccc2)cc1S(C)(=O)=O` [Compound 64, methyl 4-[3-({[2-chloro-3-(trifluoromethyl)phenyl]methyl}(2,2-diphenylethyl)amino)propoxy]-2-fluoro-6-methanesulfonylbenzoate] had an EC50 of under 1000 nM. The Emax at 1 µM in the test on ApoE (Homo sapiens, MeWo, 1 μM) was over 80%. The Emax at 10 µM with ApoE (Homo sapiens, MeWo, 10 μM) was over 80%.
With `CC(O)c1c(F)cc(OCCCN(Cc2cccc(C(F)(F)F)c2Cl)CC(c2ccccc2)c2ccccc2)cc1S(C)(=O)=O` (stereo not drawn) [Compound 85, 1-{4-[3-({[2-chloro-3-(trifluoromethyl)phenyl]methyl}(2,2-diphenylethyl)amino)propoxy]-2-fluoro-6-methanesulfonylphenyl}ethan-1-ol], in the test with ApoE (Homo sapiens, MeWo), the EC50 is under 1000 nM. Besides, the Emax at 1 µM in the test on ApoE (Homo sapiens, MeWo, 1 μM) was over 80%.
With `C[C@H](CCO[C@@H]1CCCN(S(C)(=O)=O)C1)N(Cc1cccc(C(F)(F)F)c1Cl)CC(c1ccccc1)c1ccccc1` [Compound 30, {[2-chloro-3-(trifluoromethyl)phenyl]methyl}(2,2-diphenylethyl)[(2R)-4-{[(3R)-1-methanesulfonylpiperidin-3-yl]oxy}butan-2-yl]amine], the Emax at 1 µM in the test on ApoE (Homo sapiens, MeWo, 1 μM) was over 40%. Moreover, the Emax at 10 µM in the test with ApoE (Homo sapiens, MeWo, 10 μM) was over 80%.
Consider `CS(=O)(=O)c1cc(OCCCN(Cc2cccc(C(F)(F)F)c2Cl)CC(c2ccccc2)c2ccccc2)cc(F)c1C(=O)O` [Compound 35, 4-[3-({[2-chloro-3-(trifluoromethyl)phenyl]methyl}(2,2-diphenylethyl)amino)propoxy]-2-fluoro-6-methanesulfonylbenzoic acid], for which the EC50 in the test with ApoE (Homo sapiens, MeWo) is under 3000 nM. The Emax at 1 µM in the test with ApoE (Homo sapiens, MeWo, 1 μM) was under 40%. Further, the Emax at 10 µM in the test with ApoE (Homo sapiens, MeWo, 10 μM) is over 40%.
